molecular target: T1, glucagon receptor (Homo sapiens, UniProt P47871); assay: glucagon receptor binding assay (125I-glucagon, CHO-HGR membranes); details: 20 μM; reported where 20 μM did not reduce glucagon binding by 50%
T1 construct: expressed in transfected cells; host or cells: Chinese Hamster Ovary cells (CHO-HGR), membranes
Protocol: The affinity for the glucagon receptor of compounds of the present invention is determined by the glucagon receptor binding assay. Membranes were prepared from Chinese Hamster Ovary cells expressing the glucagon receptor (CHO-HGR) by scraping the cells into hypotonic lysis buffer (10 mM Tris, pH 7.4, 2 mM EDTA, 5 mM MgCl2 and 1 mM PMSF) and subjecting the material to Polytron homogenization. Nuclei were removed by a 15-min 800×g centrifugation step conducted at 4° C. Membranes containing the receptor were collected by centrifugation at 15,000×gfor 15 min at 4° C. The membranes were washed once in lysis buffer and suspended in 0.25 M sucrose, 10 mM Tris, 5 mM EDTA, pH 7.4. The membranes were used in ligand binding studies as reported (Yoo-Warren, H., Willse, A. G., Hancock, N., Hull, J., McCaleb, M., and Livingston, J. Regulation of Rat Glucagon Receptor Expression. Biochem. Biophysical Res. Commun. 1994, 205, 347-353). In brief, 10 ug of membrane protein was incubated in 130 μl of binding buffer that consisted of 20 mM Tris, […], 1 mM EDTA, 1 mg/ml BSA, and 1 mg/ml bacitracin. The membrane suspension was placed in each well of a 96-well filtration plate (glass fiber type C, Millipore). […] Following the addition of test compound, 50 μl of ^125 I-glucagon (9 fmol) (NEN) was added to each well. Control wells contained membranes, 0.5% DMSO (solvent for test compounds), radiolabeled glucagon without and with excess native glucagon (1 μM) to establish nonspecific binding. The plates were incubated for 60 min at room temperature, and then filtered on a Mllipore vacuum apparatus. Following a wash step with ice-cold PBS/0.1% BSA, the filters were punched into test tubes, and the membrane bound radioactivity was determined.

T1 sequence (P47871 26-477): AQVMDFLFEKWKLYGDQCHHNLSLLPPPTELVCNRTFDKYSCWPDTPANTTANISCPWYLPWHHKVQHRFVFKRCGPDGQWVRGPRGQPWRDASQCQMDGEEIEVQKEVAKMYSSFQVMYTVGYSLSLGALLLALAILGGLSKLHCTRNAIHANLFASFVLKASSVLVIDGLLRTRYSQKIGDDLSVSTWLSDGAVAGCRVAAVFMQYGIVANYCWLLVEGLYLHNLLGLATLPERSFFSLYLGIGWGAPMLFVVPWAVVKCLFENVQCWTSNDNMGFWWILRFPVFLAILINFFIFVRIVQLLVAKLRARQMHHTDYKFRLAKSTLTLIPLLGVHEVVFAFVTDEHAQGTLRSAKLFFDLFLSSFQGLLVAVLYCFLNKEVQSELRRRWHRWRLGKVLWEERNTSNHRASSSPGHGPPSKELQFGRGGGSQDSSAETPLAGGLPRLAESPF

SMILES | inhibition at 20 µM [%]
C=Cc1c(CC)nc(CC)c(CO)c1-c1ccccc1 [Example 8] | 17
CCCCCc1c(C(C)C)nc(C(C)C)c(CO)c1-c1ccccc1C [Example 142, 2,6-Diisopropyl-3-hydroxymethyl-4-(2-methylphenyl)-5pentylpyridine] | 33.1
CC(C)c1nc(C(C)C)c(CSc2ccc(O)cc2)c(-c2ccc(F)cc2)c1CO [Example 55, 2,6-Diisopropyl-3-hydroxymethyl-4-(4-fluorophenyl)-5-[(4-hydroxy-phenyl)thio]methylpyridine] | 15.7
CCCCCc1c(C(C)C)nc(C(C)C)c(CO)c1-c1ccc(C(F)(F)F)cc1 [Example 126, 2,6-Diisopropyl-3-hydroxymethyl-4-[(4-trifluoromethyl)phenyl]-5-pentylpyridine] | 35.3
CCCC=Cc1c(C(C)C)nc(C(C)C)c(CO)c1-c1ccc(CC)cc1 [Example 131, 2,6-Diisopropyl-3-hydroxymethyl-4-(4-ethylphenyl)-5-(pent-1-enyl)-pyridine] | 37.3
CCCC=Cc1c(C(C)C)nc(C(C)C)c(CO)c1-c1cccc(F)c1 [Example 127, 2,6-Diisopropyl-3-hydroxymethyl-4-(3-fluorophenyl)-5-(pent-1-enyl)-pyridine] | 45.5
CCCCC(OC)c1c(C(C)C)nc(C(C)C)c(CO)c1-c1ccc(F)cc1 (racemic) [Example 100, (±)-2,6-Diisopropyl-3-hydroxymethyl-4-(4-fluorophenyl)-5-(1-methoxy-pentyl)pyridine] | 39.6
COC(=O)c1c(C(C)C)nc(C(C)C)c(CN2CCC(N3CCCCC3)CC2)c1-c1ccc(F)cc1 [Example 73, Methyl-2,6-diisopropyl-4-(4-fluorophenyl)-5-(4piperidinopiperidin-1-yl)methyl-3-pyridinecarboxylate] | 17.5
CCCC=Cc1c(C(C)C)nc(C(C)C)c(CO)c1-c1cccc(OC)c1 [Example 170, 2,6-Diisopropyl-3-hydroxymethyl-4-(3-methoxyphenyl)-5-(pent-1-enyl)pyridine] | 45.5
CC(C)c1nc(C(C)C)c(CCCC(=O)O)c(-c2ccc(F)cc2)c1CO [Example 92, 2,6-Diisopropyl-3-hydroxymethyl-4-(4-fluorophenyl)-5-(3carboxypropyl)pyridine] | 11.6
CCC(O)c1c(C(C)C)nc(C(C)C)c(CO)c1-c1ccc(F)cc1 (racemic) [Example 94, (±)-2,6-Diisopropyl-3-hydroxymethyl-4-(4-fluorophenyl)-5-(1-hydroxy-propyl)pyridine] | 38.5
CC(C)c1nc(C(C)C)c(C(O)c2ccccc2)c(-c2ccc(F)cc2)c1CO (racemic) [Example 96, (±)-2,6-Diisopropyl-3-hydroxymethyl-4-(4-fluorophenyl)-5-(hydroxy-phenylmethyl)pyridine] | 27.8

same assay, conditions: 125I-glucagon; 60 min at room temperature; read-out: IC50

SMILES | IC50 [nM]
CCCCCc1c(C(C)C)nc(C(C)C)c(C(C)O)c1-c1ccc(F)cc1 (single isomer, unassigned) [Example 107, 2,6-Diisopropyl-3-(1-hydroxyethyl-4-fluorophenyl)-5-pentylpyridine] | 3000
CCCCCc1c(C(C)C)cc(C(C)C)c(C(C)O)c1-c1ccc(F)cc1O (stereo not shown) [Example 247, 3,5-Diisopropyl-2-(1-hydroxyethyl)-6-pentyl-4'-fluoro-2'-hydroxy-1,1'-biphenyl] | 6
CC(C)c1nc(C(C)C)c(CSc2c(F)c(F)cc(F)c2F)c(-c2ccc(F)cc2)c1CO [Example 53, 2,6-Diisopropyl-3-hydroxymethyl-4-(4-fluorophenyl)-5-[(2,3,5,6-tetra-fluorophenyl)thio]methylpyridine] | 4900
CC(C)c1nc2c(c(-c3ccc(F)cc3)c1CO)CCCC2(C)C [Example 230, 2-Isopropyl-3-hydroxymethyl-4-(4-fluorophenyl)-5,6,7,8-tetrahydro-8,8-dimethylquinoline] | 900
CCCc1c(C(C)C)cc(C(C)C)c(C(C)O)c1-c1ccc(F)cc1 (single isomer, unassigned; (+)) [Example 245, (+)-3,5-Diisopropyl-2-(1-hydroxyethyl)-6-propyl-4'-fluoro-1,1'-biphenyl] | 300
CC(C)c1nc(C(C)C)c(CC=Cc2ccccc2)c(-c2ccc(F)cc2)c1CO [Example 82, 2,6-Diisopropyl-3-hydroxymethyl-4-(4-fluorophenyl)-5-(3-phenyl-2-propenyl)pyridine] | 1900
Cc1ccc(/C=C/c2c(C(C)C)nc(C(C)C)c(CO)c2-c2ccc(F)cc2)cc1 [Example 42, 2,6-Diisopropyl-3-hydroxymethyl-4-(4-fluorophenyl)-5-[2(E)-(4-methyl-phenyl)ethenyl]pyridine] | 700
CCCCCCc1c(C(C)C)nc(C(C)C)c(CO)c1-c1ccc(F)cc1 [Example 23, 2,6-Diisopropyl-3-hydroxymethyl-4-(4-fluorophenyl)-5-hexylpyridine] | 390
CCCCCc1c(C(C)OCC)nc(C(C)C)c(CO)c1-c1ccc(F)cc1 (stereo not shown) [Example 217, 2-(1-Ethoxyethyl)-3-pentyl-4-(4-fluorophenyl)-5-hydroxymethyl-6-isopropylpyridine] | 8000
CCCc1c(C(C)C)nc(C(C)C)c(CO)c1-c1ccc(F)cc1O (racemic) [Example 239-rac, 2,6-Diisopropyl-3-(1-hydroxymethyl)-4-(4-fluoro-2-hydroxyphenyl)-5-propylpyridine] | 80
CC(C)C=Cc1c(C(C)C)nc(C(C)C)c(CO)c1-c1ccc(F)cc1 [Example 27, 2,6-Diisopropyl-3-hydroxymethyl-4-(4-fluorophenyl)-5-(3-methyl-1-butenyl)pyridine] | 20000
CCCC=Cc1c(C(C)C)nc(C(C)C)c(CO)c1-c1ccoc1 [Example 187, 2,6-Diisopropyl-3-hydroxymethyl-4-(3-furyl)-5-(pent-1-enyl)pyridine] | 12000
Cc1cccc(/C=C/c2c(C(C)C)nc(C(C)C)c(CO)c2-c2ccc(F)cc2)c1 [Example 41, 2,6-Diisopropyl-3-hydroxvmethyl-4-(4fluorophenyl)-5-[2(E)-(3-methyl-phenyl)ethenyl]pyridine] | 600
CC(C)CCc1c(C(C)C)nc(C(C)C)c(CO)c1-c1ccc(F)cc1 [Example 29, 2,6-Diisopropyl-3-hydroxymethyl-4-(4-fluorophenyl)-5-(3-methylbutyl)pyridine] | 1000
CSCc1c(C(C)C)nc(C(C)C)c(CO)c1-c1ccc(F)cc1 [Example 67, 2,6-Diisopropyl-3-hydroxymethyl-4-(4-fluorophenyl)-5-(methylthio)-methylpyridine] | 1100
C=Cc1nc(C(C)C)c(CO)c(-c2ccc(F)cc2)c1CCCCC [Example 214, 2-Ethenyl-3-pentyl-4-(4-fluorophenyl)-5-hydroxymethyl-6-isopropylpyridine] | 5000
CCC=Cc1c(C(C)C)nc(C(C)C)c(CO)c1-c1ccccc1 [Example 13] | 3000
CC(C)c1nc(C(C)C)c(CN(C)C)c(-c2ccc(F)cc2)c1CO [Example 79, 2,6-Diisopropyl-3-hydroxymethyl-4-(4-fluorophenyl)-5-(dimethylamino)-methylpyridine] | 10000
CCCCCc1c(C(C)C)nc(C(C)C)c(CO)c1-c1cccc(F)c1 [Example 128, 2,6-Diisopropyl-3-hydroxymethyl-4-(3-fluorophenyl)-5-pentylpyridine] | 3000
CCCCCc1c(C(C)C)nc(C(C)C)c(CO)c1-c1ccoc1 [Example 188, 2,6-Diisopropyl-3-hydroxymethyl-4-(3-furyl)-5-pentylpyridine] | 10500
Cc1ccccc1/C=C/c1c(C(C)C)nc(C(C)C)c(CO)c1-c1ccc(F)cc1 [Example 40, 2,6-Diisopropyl-3-hydroxymethyl-4-(4-fluorophenyl)-5-[2(E)-(2-methyl-phenyl)ethenyl]pyridine] | 750
Cc1ccc(CCCc2c(C(C)C)nc(C(C)C)c(CO)c2-c2ccc(F)cc2)cc1 [Example 86, 2,6-Diisopropyl-3-hydroxymethyl-4-(4-fluorophenyl)-5-[3-(4methyl-phenyl)propyl]pyridine] | 1100
Cc1ccccc1CCCc1c(C(C)C)nc(C(C)C)c(CO)c1-c1ccc(F)cc1 [Example 84, 2,6-Diisopropyl-3-hydroxymethyl-4-(4-fluorophenyl)-5-[3-(2-methylphenyl)propyl]pyridine] | 1900
Cc1ccccc1SCc1c(C(C)C)nc(C(C)C)c(CO)c1-c1ccc(F)cc1 [Example 58, 2,6Diisopropyl-3-hydroxymethyl-4-(4-fluorophenyl)-5-[(2-methyl-phenyl)thio]methylpyridine] | 1500

same assay, conditions: IC50, 125I-glucagon; 60 min at room temperature

SMILES | IC50 [nM]
CCCCCc1c(C)nc(C(C)C)c(CO)c1-c1ccc(F)cc1 [Example 197, 2-Isopropyl-3-hydroxymethyl-4-(4-fluorophenyl)-5-pentyl-6-methyl-pyridine] | 7000

Source: US6218431A, “Substituted biphenyls” (Bayer Corporation, priority 1997, dated 2001)
